# In patent publication EP3248604A1, “AGENTS FOR MODULATION OF WNT-TCF SIGNALLING AND USES THEREOF” (UNIVERSITE DE GENEVE, priority 2016, dated 2017):
# How the values were obtained:
# cell proliferation = assay: BrdU incorporation assay; assay type: cell-based; conditions: Example 3 (Ls174T, DLD1 cells)
# Description: Cells incubated in vitro with different compounds were treated in DMEM-F12 with reduced serum (2.5% FBS) for 20 min with BrdU (5-bromo-2'-deoxyuridine; 10mg/ml, Sigma), washed and fixed with fresh paraformaldehyde (PFA; 4%, pH 8) followed by acid treatment and neutralization (Melotti et al., 2014, supra). Antibody analyses used anti-BrdU antibodies (supplied by University of Iowa Hybridoma Bank) and rhodamine-coupled anti-mouse secondary antibodies (Invitrogen Molecular Probes). Nuclei were counterstained with DAPI (4',6-diamidino-2-phenylindole; Sigma).
# WNT-TCF targets [1] = assay: RT-qPCR gene expression in DLD1 cells; assay type: cell-based, human
# Description: (§1) RT-qPCR was performed as in Melotti et al. (2014, supra) using BioRad equipment and reagents. Cells cultured in nitro were treated with the desired concentration of drug in DMEM-F12 and reduced serum (2.5% FBS) for 16h, unless otherwise noted, and collected in Trizol (Sigma) before total RNA extraction and cDNA synthesis. Primers were as in Table 1. HPRT (gene encoding Hypoxanthine phosphoribosyltransferase 1) and βACTIN were used as housekeeping controls for normalization.
# (§2) Primary colon cells CC14, CC36 and mCC11, colon cancer cell lines DLD1, HT29, Ls174T, melanoma cell line MeWo, glioblastoma cell lines U87 and U251, and the lung cancer cell line H358 were cultured in DMEM-F12 with 10% FBS under standard in nitro conditions.
# WNT-TCF targets [2] = assay: RT-qPCR gene expression in CC36 primary colon cancer cells; assay type: cell-based, human; conditions: 16h, batch 3, vs DMSO=1
# Description: as §1, §2
# WNT-TCF targets [3] = assay: Epistatic rescue with TCF^VP16, Ls174T; assay type: cell-based, human; conditions: CAP2 5µM, 16h
# Description: (§3) Lentivectors expressing a TCF4^VP16 protein in a vector independently expressing GFP, or vector alone, plus reporter plasmids were transfected into cells. 72h after transfection cells were visually checked for expression of GFP. Independent batches of cells with >80% GFP expression were chosen for further experimentation and treated with or without compounds in DMEM-F12 (with 2.5% FBS) for 16h and collected in Trizol.
# (§4) If the effects of CAP2 on WNT-TCF targets were specific, an activated form of TCF should rescue the repression since CAP2 is likely to act downstream of the APC destruction complex since it was found using an N'Δ form of βCATENIN that is APC insensitive. To activate this last step of canonical WNT signaling, a fusion between TCF and the potent transactivation domain of the viral VP16 protein, TCF^VP16 (Melotti et al., 2014, supra), was used to directly and positively regulate TCF targets. […] Rescue of LGR5, cMYC and ASCL2 repression by CAP2 (at 5µM) was also observed although there was variability between the cell types, similarly to the repression of CDKN1A (Table 8), although in all cases it reversed its enhancement by CAP2 treatment (Table 8).
# WNT-TCF targets [4] = assay: Epistatic rescue with TCF^VP16, mCC11; assay type: cell-based, human; conditions: CAP2 5µM, 16h
# Description: as §3, §4
# Epigenetic regulators [5] = assay: RT-qPCR of epigenetic regulators in CC14 cells; assay type: cell-based, human; conditions: 0.5 µM
# Description: as §1
# (§5) The WNT-TCF-independent repressive activity of CAP2 on epigenetic regulators may be extrapolated to other cancer cells as it was also detected in HT29 and CC14 human colon cancer cells, in MeWo human melanoma cells as well as in U87 and U251 human glioma cells. In all these different human cancer cells, CAP2 (at 0.5 µM) modulated the expression of ZMYND8, SMARCAL1, TBLIXR1, SETD6 and TAF5Ls (Table 15).
# Epigenetic regulators [6] = assay: RT-qPCR of epigenetic regulators in MeWo cells; assay type: cell-based, human; conditions: 0.5 µM
# Description: as §1, §5
# [7] = DLD1, 1.25µM, 16h, batch 3, vs DMSO=1
# [8] = DLD1, 2.5µM, 16h, batch 3, vs DMSO=1
# [9] = DLD1, 5µM, 16h, batch 3, vs DMSO=1
# [10] = DLD1, 10µM, 16h, batch 3, vs DMSO=1
# [11] = Table 7, DLD1, 1.25µM, vs DMSO=1
# [12] = Table 7, DLD1, 2.5µM, vs DMSO=1
# [13] = Table 11, head 'in vitro', DLD1, concentration not given
# [14] = Table 13, DLD1 secondary 3D spheroids, pretreated 2.5µM
compound,measurement,setting,value
CC1=C(C)C(=O)O[C@@H]([C@](C)(O)[C@]2(O)CC[C@@]3(O)[C@@H]4CC=C5CC=CC(=O)[C@]5(C)[C@H]4CC[C@]23C)C1 [CAP2],concentration which changes cell proliferation assessed by BrdU incorporation,cell proliferation,1.25 µM
same,AXIN2 expression,WNT-TCF targets [1]; [7],1.2
same,LGR5 expression,WNT-TCF targets [1]; [7],1.6
same,AXIN2 expression,WNT-TCF targets [1]; [8],0.2
same,LGR5 expression,WNT-TCF targets [1]; [8],0.3
same,AXIN2 expression,WNT-TCF targets [1]; [9],0.3
same,LGR5 expression,WNT-TCF targets [1]; [9],0.1
same,AXIN2 expression,WNT-TCF targets [1]; [10],0.1
same,LGR5 expression,WNT-TCF targets [1]; [10],0.04
same,AXIN2 expression level as compared to control,"WNT-TCF targets [1]; DLD1, 2D culture, 2.5µm",0.2
same,ASCL2 expression,WNT-TCF targets [1]; [11],0.2
same,AXIN2 expression,WNT-TCF targets [1]; [11],0.8
same,CDKN1A expression,WNT-TCF targets [1]; [11],7.2
same,LEF1 expression,WNT-TCF targets [1]; [11],0.4
same,LGR5 expression,WNT-TCF targets [1]; [11],0.5
same,cMYC expression,WNT-TCF targets [1]; [11],0.5
same,ASCL2 expression,WNT-TCF targets [1]; [12],0.2
same,AXIN2 expression,WNT-TCF targets [1]; [12],0.6
same,CDKN1A expression,WNT-TCF targets [1]; [12],8.6
same,LEF1 expression,WNT-TCF targets [1]; [12],0.3
same,LGR5 expression,WNT-TCF targets [1]; [12],0.3
same,cMYC expression,WNT-TCF targets [1]; [12],0.2
same,ASCL2 expression,"WNT-TCF targets [1]; Table 7, DLD1, 5µM, vs DMSO=1",0.3
same,AXIN2 expression,"WNT-TCF targets [1]; Table 7, DLD1, 5µM, vs DMSO=1",0.5
same,CDKN1A expression,"WNT-TCF targets [1]; Table 7, DLD1, 5µM, vs DMSO=1",9.0
same,LEF1 expression,"WNT-TCF targets [1]; Table 7, DLD1, 5µM, vs DMSO=1",0.1
same,LGR5 expression,"WNT-TCF targets [1]; Table 7, DLD1, 5µM, vs DMSO=1",0.1
same,cMYC expression,"WNT-TCF targets [1]; Table 7, DLD1, 5µM, vs DMSO=1",0.001
same,ASCL2 expression,"WNT-TCF targets [1]; Table 7, DLD1, 10µM, vs DMSO=1",0.3
same,AXIN2 expression,"WNT-TCF targets [1]; Table 7, DLD1, 10µM, vs DMSO=1",0.2
same,CDKN1A expression,"WNT-TCF targets [1]; Table 7, DLD1, 10µM, vs DMSO=1",6.1
same,LEF1 expression,"WNT-TCF targets [1]; Table 7, DLD1, 10µM, vs DMSO=1",0.1
same,LGR5 expression,"WNT-TCF targets [1]; Table 7, DLD1, 10µM, vs DMSO=1",0.1
same,cMYC expression,"WNT-TCF targets [1]; Table 7, DLD1, 10µM, vs DMSO=1",0.0002
same,ASCL2 expression,WNT-TCF targets [1]; [13],0.3
same,AXIN2 expression,WNT-TCF targets [1]; [13],0.5
same,LGR5 expression,WNT-TCF targets [1]; [13],0.1
same,AXIN2 expression,"WNT-TCF targets [1]; Table 13, DLD1 2D, 2.5µM",0.2
same,cMYC expression,"WNT-TCF targets [1]; Table 13, DLD1 2D, 2.5µM",0.1
same,AXIN2 expression,WNT-TCF targets [1]; [14],0.5
same,cMYC expression,WNT-TCF targets [1]; [14],0.4
same,AXIN2 expression,WNT-TCF targets [2]; 1.25µM,1.2
same,AXIN2 expression,WNT-TCF targets [2]; 2.5µM,0.6
same,AXIN2 expression,WNT-TCF targets [2]; 5µM,0.4
same,AXIN2 expression,WNT-TCF targets [2]; 10µM,0.4
same,"ASCL2 expression, TCF^VP16+ CAP2 / control + CAP2",WNT-TCF targets [3],1.0
same,"AXIN2 expression, TCF^VP16+ CAP2 / control + CAP2",WNT-TCF targets [3],16.1
same,"CDKN1A expression, TCF^VP16+ CAP2 / control + CAP2",WNT-TCF targets [3],0.5
same,"LGR5 expression, TCF^VP16+ CAP2 / control + CAP2",WNT-TCF targets [3],0.7
same,"cMYC expression, TCF^VP16+ CAP2 / control + CAP2",WNT-TCF targets [3],2.7
same,"ASCL2 expression, TCF^VP16+ CAP2 / control + CAP2",WNT-TCF targets [4],3.5
same,"AXIN2 expression, TCF^VP16+ CAP2 / control + CAP2",WNT-TCF targets [4],21.9
same,"CDKN1A expression, TCF^VP16+ CAP2 / control + CAP2",WNT-TCF targets [4],0.8
same,"LGR5 expression, TCF^VP16+ CAP2 / control + CAP2",WNT-TCF targets [4],2.9
same,"cMYC expression, TCF^VP16+ CAP2 / control + CAP2",WNT-TCF targets [4],3.3
same,EED expression,Epigenetic regulators [5],0.3
same,SETD6 expression,Epigenetic regulators [5],0.4
same,SMARCAL1 expression,Epigenetic regulators [5],0.2
same,TAF5L expression,Epigenetic regulators [5],0.5
same,TBL1XR1 expression,Epigenetic regulators [5],0.2
same,ZMYND8 expression,Epigenetic regulators [5],0.1
same,EED expression,Epigenetic regulators [6],0.5
same,SETD6 expression,Epigenetic regulators [6],1
same,SMARCAL1 expression,Epigenetic regulators [6],0.2
same,TAF5L expression,Epigenetic regulators [6],0.8
same,TBL1XR1 expression,Epigenetic regulators [6],0.2
same,ZMYND8 expression,Epigenetic regulators [6],0.1
